Source: PMC4701221, “Novel Promising Estrogenic Receptor Modulators: Cytotoxic and Estrogenic Activity of Benzanilides and Dithiobenzanilides” (PLoS ONE, 2016)
Entries after “also recorded” stand apart in the source; their conditions may differ.

Legend:
MCF-7 cells = experiment: MTT assay, MCF-7; assay type: cell-based, human
Experimental: The cell lines used in the cytotoxicity study, besides MCF-12A, were purchased from European Collection of Cell Culture (ECACC, Salisbury, UK): HEK293 (human embryonic kidney, ATTC no. CRL-1573), A549 (Human lung carcinoma, ECACC no. 86012804), CCD39Lu (Human lung fibroblasts, ECACC no. 90110512), MCF-7 (Human breast adenocarcinoma, ECACC no. 86012803) and MDA-MB-231 (Human breast adenocarcinoma ECACC no. 92020424). Cell lines were cultured in DMEM medium without phenol red and supplemented with 10% (v/v) FBS, 1% penicillin-streptomycin and 1% L-glutamine. MCF-12A (ATTC no. […]) was purchased from American Type Culture Collection (ATCC Manassas, VA 20110 USA). MCF-12A cells were kept in 1:1 mixture of Dulbecco’s modified Eagle’s medium and Ham’s F12 medium, 20 ng/ml human epidermal growth factor, 100 ng/ml cholera toxin, 0.01 mg/ml bovine insulin, 500 ng/ml hydrocortisone and 5% horse serum. All cell lines were cultured at 37°C, in a humidified atmosphere containing 5% CO2.
(§1) Compounds were dissolved in DMSO to the final concentration of […]. A549, CCD39Lu, MCF-7, MDA-MB-231 and MCF-12A cells were seeded in 96 wells plates at density 2x10^4 cells/well and incubated overnight as described above. Subsequently, cells were treated with tested compounds at concentrations: 100 μM; 50 μM; 25μM; 12.5μM; 6 μM; 3 μM; 1.5 μM. […] Cells were incubated 72 h at 37°C in a humidified atmosphere containing 5% CO2 in the cell culture media appropriate for each cell line. Then, the medium was aspirated and 170 μl MTT solution (5mg/ml) was added to each well. Plates were incubated for 2 hours at 37°C, and then plates were centrifuged at 1200 rpm for 3 minutes. The formazan crystals were dissolved in 200 μl DMSO and plates were further agitated on a plate shaker at 300–500 rpm for 10 minutes. Absorbance at 570 nm (with reference wavelenght 650 nm) was measured using a plate reader (Biotek Instruments, Elx-800). Cell viability was calculated as a percentage relative to the control.

estrogen receptor = target: T1, estrogen receptor (Homo sapiens, UniProt P03372); experiment: Estrogen Receptor luciferase assay in MCF-7 cells (endogenous ER); assay type: cell-based; details: MCF-7 transfected with p3xERRE/ERE-luciferase, Fig 3C
T1 construct: MCF-7 cells, which endogenously express ERα receptor; endogenous in cells; host or cells: MCF-7
T1 sequence (P03372 1-595): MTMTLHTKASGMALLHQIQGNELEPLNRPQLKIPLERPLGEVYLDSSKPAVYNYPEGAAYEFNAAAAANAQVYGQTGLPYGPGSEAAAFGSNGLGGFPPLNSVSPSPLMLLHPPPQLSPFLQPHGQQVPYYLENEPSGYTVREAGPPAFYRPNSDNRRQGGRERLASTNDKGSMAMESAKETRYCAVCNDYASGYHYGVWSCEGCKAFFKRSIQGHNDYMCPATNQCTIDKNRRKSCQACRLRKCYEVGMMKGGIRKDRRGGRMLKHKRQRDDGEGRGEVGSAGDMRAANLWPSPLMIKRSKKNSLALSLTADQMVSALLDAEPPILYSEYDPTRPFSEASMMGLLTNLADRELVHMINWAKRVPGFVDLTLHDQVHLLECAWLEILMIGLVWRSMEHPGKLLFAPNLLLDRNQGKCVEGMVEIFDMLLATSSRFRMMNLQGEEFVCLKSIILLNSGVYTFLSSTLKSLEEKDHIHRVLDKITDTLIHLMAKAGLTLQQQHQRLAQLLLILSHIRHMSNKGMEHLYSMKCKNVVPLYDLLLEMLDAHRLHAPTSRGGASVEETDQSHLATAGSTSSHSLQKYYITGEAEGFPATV
Source text: To obtain a eukaryotic vector expressing only the ER-α nuclear receptor, a construct was designed by cloning a KpnI-BamHI fragment from plasmid pEGFP-C1-ERα containing the ERα coding sequence that includes a stop signal into the pEGFP-N3 plasmid (Clontech Laboratories, Palo Alto, CA) under the control of the CMV promoter. This construction was termed pEGFP-N-ERα, and although it encoded both human ERα receptor and GFP protein, only the former is expressed. For mock transfections, pEGFP-N3 plasmid was digested with BglII and NotI and religated after polishing DNA ends to remove GFP coding sequence. Plasmid sequence was confirmed by automatic sequencing. Prior to transfection, cells were seeded in 48 well plates at density of 1.5 x 10^4 cells/well and incubated for 24 h to reach a cell confluence of 80–90%. […] MCF-7 cells, which endogenously express ERα receptor, were transfected with p3xERRE/ERE-luciferase plus the pRLTK Renilla luciferase control plasmid (95:5). Firefly and Renilla luciferase activities were measured using the Dual Luciferase Assay System (Promega, Madison, WI, USA), following a standard protocol using a Sirius L luminometer (Berthold Technologies, Bad Wildbad, Germany). Data were expressed as relative changes in luciferase activity and normalized to 100%.

HEK293 cells = experiment: MTT cell viability, non-transfected (mock) HEK293 cells; assay type: cell-based, human; details: 0–100 μM, 72 h, Fig 6B
Experimental: as §1, with “The formazan crystals were dissolved in 200 μl DMSO and plates were further agitated on a plate shaker at 300–500 rpm for 10 minutes.” left out
(§2) Fig 6 Estrogenic and cytotoxic activity of tested compounds in HEK293 cells transfected with wild type ERα receptor or plasmids bearing mutated versions of ERα. […] Results are expressed as mean ± SEM (n = 8). * p < 0.05 was considered statistically significant. […] 48 h after transfection, cells were incubated in the presence of increasing concentrations of compounds 18 for 72 h and cell viability was measured by MTT assay. […]

[1] = tested on: ERα transfected HEK293 cells; experiment: MTT cell viability, ERα transfected HEK293 cells; assay type: cell-based, human; details: 0–100 μM, 72 h, Fig 6B
Experimental: as §1, with “The formazan crystals were dissolved in 200 μl DMSO and plates were further agitated on a plate shaker at 300–500 rpm for 10 minutes.” left out
as §2

Fc1ccc(NC(=S)c2ccc(NC(=S)c3ccc(F)cc3)cc2)cc1 [Compound 18]
Activity in MTT assay (in words), MCF-7 (MCF-7 cells; 72 h): significant activity; also recorded: strong effect | IC50 (MCF-7 cells; Homo sapiens, MCF7, 72 h, estrogen dependent breast adenocarcinoma, read-out: Cytotoxic activity IC50, MCF-7): 5.07 µM | Transcriptional (luciferase) activity in MCF-7 (estrogen receptor): significantly higher transcriptional activity compared to estradiol | Cell viability, non-transfected HEK293 (HEK293 cells): moderate cell toxicity | Cell viability, ERα transfected HEK293 [1]: significantly decreased cell viability
